Where two headings read alike, the source gives them in different places.
How the values were obtained:
NRSF mediated repression = test: gal4-NRSF luciferase reporter (G5-TATA-Luc) in JTC-19 cells; type: cell-based, rat
CtBP2 binding to NRSF [1] = biological target: T1, CtBP2 binding to NRSF (Homo sapiens, UniProt P56545); test: binding of recombinant 6x-HIS-CtBP2 to immunopurified MYC-tagged NRSF with NADH; details: recombinant CtBP2 pre-incubated with NADH
T1 construct: made in house
Description: Immunoprecipitation experiments were performed to examine CtBP2/NRSF binding and the effect of increasing NADH concentration on such binding. In these experiments, soluble recombinant 6×-HIS-tagged CtBP2 (produced using the Qiagen Expression System, Qiagen, Valencia, Calif., according to the manufacturer's instructions) was pre-incubated with indicated concentrations of NADH and then added to immunopurified, antibody and bead bound MYC-tagged NRSF protein (Roopra et al., 2000, Id.) while maintaining the appropriate NADH concentration. The resulting complexes were harvested, washed and subjected to Western blot analysis with an antibody to the 6×-HIS tag on CtBP2 (Qiagen). CtBP2 binding to NRSF is abrogated in the presence of NADH, showing that the NRSF-CtBP2 interaction is sensitive to NADH concentration.

CtBP2 binding to NRSF [2] = biological target: T2, CtBP2 binding to NRSF (Mus musculus, UniProt P56546); test: immunoprecipitation of MYC-NRSF with KT3-CtBP2 from HEK cells at NADH concentrations
T2 construct: expressed in transfected cells; host or cells: HEK-293 cells
Description: Protein was harvested, incubated with the indicated concentrations of NADH and immunoprecipitated with anti-KT3 antibody or anti-Jun antibody as sham. Immune complexes were subjected to Western blot analysis with anti-MYC antibody.
As NADH concentrations regulate CtBP2 binding to a number of transcription factors (see Zhang et al., 2002, Id.; Mirnezami et al., 2003, Id.; Kim et al., 2005, Nat Struct Mol Biol 12: 423-8) and the non-NADH binding G189A CtBP mutant abolishes metabolic sensitivity of NRSF function, CtBP2 binding to NRSF was tested as a function of NADH concentration. In these experiments, HEK cells were co-transfected with plasmids expressing MYC-tagged NRSF or KT3-tagged CtBP2 as described above. Protein was harvested, incubated with NADH at concentrations from 0-1000 nM and immunoprecipitated with anti-KT3 antibody or anti-Jun antibody as sham. Immune complexes were subjected to Western blot analysis using an anti-MYC antibody conjugated with horseradish peroxidase as described above and in Roopra et al. (2004, Id.). […] Half maximal binding occurred at a physiologically relevant concentrations of ˜70 nM (data not shown).

T2 sequence (P56546 whole entry): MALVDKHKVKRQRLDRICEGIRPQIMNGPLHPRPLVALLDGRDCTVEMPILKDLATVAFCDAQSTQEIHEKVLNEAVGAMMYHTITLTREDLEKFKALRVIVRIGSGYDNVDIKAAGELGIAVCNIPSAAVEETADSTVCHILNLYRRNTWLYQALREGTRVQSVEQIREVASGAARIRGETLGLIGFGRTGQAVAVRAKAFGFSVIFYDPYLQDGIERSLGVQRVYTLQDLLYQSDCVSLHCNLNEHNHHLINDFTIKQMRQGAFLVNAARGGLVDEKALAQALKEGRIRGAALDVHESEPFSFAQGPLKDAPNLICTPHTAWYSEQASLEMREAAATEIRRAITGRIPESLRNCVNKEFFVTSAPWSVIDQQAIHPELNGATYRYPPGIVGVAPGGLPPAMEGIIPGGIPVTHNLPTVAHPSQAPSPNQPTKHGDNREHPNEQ

SMILES: [Cl-].[Cl-].[Co+2] [CoCl2, reference compound]
- repression of luciferase reporter gene expression by NRSF (fold repression gal4 DBD/gal4-NRSF) (NRSF mediated repression): decreased repression

SMILES: NC(=O)C1=CN([C@@H]2O[C@H](COP(=O)(O)OP(=O)(O)OC[C@H]3O[C@@H](n4cnc5c(N)ncnc54)[C@H](O)[C@@H]3O)[C@@H](O)[C@H]2O)C=CC1 [NADH]
- CtBP2 binding to NRSF (CtBP2 binding to NRSF [1]): abrogated
- IC50 (CtBP2 binding to NRSF [2]; HEK cell protein incubated with NADH 0-1000 nM, data not shown, read-out: NADH concentration of half maximal binding of CtBP to NRSF): ~70 nM
- effect on binding of CtBP to NRSF (CtBP2 binding to NRSF [2]; increasing concentrations of NADH, 0-1000 nM, dose dependent): disrupted binding

SMILES: O=C(O)CC(O)(CC(=O)O)C(=O)O [citrate, reference compound]
- repression of luciferase reporter gene expression by NRSF (fold repression gal4 DBD/gal4-NRSF) (NRSF mediated repression; JTC-19 cells, 16 hrs): increased repression

Reference: US7557085B2, “Metabolic-based methods for modulating gene expression” (Wisconsin Alumni Research Foundation, priority 2005, dated 2009)
